Where a SMILES comes first, the peptide text is derived from it. Bridges are numbered along the chain shown (N, C = ends).
What was measured:
[1] = tested on: rhesus monkey kidney membranes (NPR-A and NPR-C); experiment: Competition binding in rhesus monkey kidney membranes; conditions: FIG. 11, rhesus monkey kidney membranes
Experimental: For preparation of membranes from Rhesus monkey tissues, frozen tissue was placed between parafilm and broken up into pieces by hitting with a hammer. Tissue was transferred to a 125 mL polypropylene tube containing 100 mL of ice-cold buffer #1 (50 mM HEPES, pH 7.4, 1 mM EDTA, 250 mM sucrose, 0.7 mg/mL pepstatin A, 0.5 mg/mL leupeptin, 1 mM PMSF, and 1 mM phosphoramidon). Tissue was homogenized with a Brinkman polytron on a setting of 5 two times for 10 sec. The sample was placed on ice between homogenizations. 11 mL of 30 mM MgCl2/100 mM NaCl containing 1 mM phosphoramidon was added to the homogenate. The homogenate was spun at 400×g for 10 min at 4° C. in a HB-4 rotor. The supernatant was transferred to another tube and spun as above. The supernatant was passed though four layers of sterile gauze then centrifuged at 30,000×g for 20 min at 4° C. in a 60 Ti rotor. […]
Membrane competition binding assays. […] The plates were washed six times with PBS, then air dried prior to adding scintillant and counted in a Packard Topcount scintillation counter for 1 min/well. Binding was measured in duplicate for each concentration of competitor.
Data analysis. The competition binding curves and cGMP production dose responses were analyzed by the four-parameter logistic equation with the KaleidaGraph™ program (Synergy Software, PA) to obtain estimates of the IC50 or EC50 values. […]

[2] = biological target: T1, hNPR-A (Homo sapiens, UniProt P16066); experiment: Competition binding to hNPR-A (Table I, FIG. 5)
T1 sequence (P16066 33-1061): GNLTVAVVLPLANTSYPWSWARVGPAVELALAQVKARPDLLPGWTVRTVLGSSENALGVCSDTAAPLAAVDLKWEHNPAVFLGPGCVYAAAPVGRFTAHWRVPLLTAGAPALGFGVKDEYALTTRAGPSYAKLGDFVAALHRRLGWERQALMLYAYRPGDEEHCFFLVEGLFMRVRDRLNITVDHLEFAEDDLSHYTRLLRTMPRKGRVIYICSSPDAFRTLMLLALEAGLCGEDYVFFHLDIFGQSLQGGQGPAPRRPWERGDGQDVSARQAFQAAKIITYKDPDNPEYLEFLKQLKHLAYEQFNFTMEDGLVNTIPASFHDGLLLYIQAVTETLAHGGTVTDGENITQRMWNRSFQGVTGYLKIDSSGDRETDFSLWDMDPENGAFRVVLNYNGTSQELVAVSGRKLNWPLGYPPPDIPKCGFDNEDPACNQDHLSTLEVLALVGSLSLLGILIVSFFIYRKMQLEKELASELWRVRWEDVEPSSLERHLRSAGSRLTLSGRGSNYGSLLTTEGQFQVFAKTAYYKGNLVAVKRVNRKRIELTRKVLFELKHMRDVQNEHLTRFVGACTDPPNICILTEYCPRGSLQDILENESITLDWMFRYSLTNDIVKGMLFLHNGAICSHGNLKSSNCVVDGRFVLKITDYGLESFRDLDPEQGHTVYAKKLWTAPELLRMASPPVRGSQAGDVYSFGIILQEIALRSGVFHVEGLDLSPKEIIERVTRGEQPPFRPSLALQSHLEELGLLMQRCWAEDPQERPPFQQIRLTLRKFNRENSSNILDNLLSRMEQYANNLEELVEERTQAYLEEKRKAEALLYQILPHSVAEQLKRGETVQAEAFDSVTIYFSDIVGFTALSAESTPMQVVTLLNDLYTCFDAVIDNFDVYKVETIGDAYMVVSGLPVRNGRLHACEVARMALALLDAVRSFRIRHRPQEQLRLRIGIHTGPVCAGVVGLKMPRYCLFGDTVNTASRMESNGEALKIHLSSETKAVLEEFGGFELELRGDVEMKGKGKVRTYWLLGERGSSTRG

[3] = biological target: T2, hNPR-C (Homo sapiens, UniProt P17342); experiment: Competition binding to hNPR-C (Table I, FIG. 5)
T2 sequence (P17342 27-541): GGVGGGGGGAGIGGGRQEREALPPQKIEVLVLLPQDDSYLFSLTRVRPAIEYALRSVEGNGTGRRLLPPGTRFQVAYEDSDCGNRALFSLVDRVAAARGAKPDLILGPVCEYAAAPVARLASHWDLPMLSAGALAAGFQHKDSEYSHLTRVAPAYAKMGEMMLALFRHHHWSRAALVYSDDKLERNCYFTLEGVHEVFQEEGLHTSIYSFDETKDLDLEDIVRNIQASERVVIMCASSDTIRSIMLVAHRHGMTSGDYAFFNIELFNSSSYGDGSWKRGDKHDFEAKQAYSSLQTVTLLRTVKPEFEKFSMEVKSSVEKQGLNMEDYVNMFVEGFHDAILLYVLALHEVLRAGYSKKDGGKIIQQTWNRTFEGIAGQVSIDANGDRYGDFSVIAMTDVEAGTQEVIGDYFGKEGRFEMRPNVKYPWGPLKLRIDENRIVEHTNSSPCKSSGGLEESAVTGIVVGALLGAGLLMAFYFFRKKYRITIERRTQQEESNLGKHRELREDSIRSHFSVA

Row | SMILES | Displacement of 125I-rat ANP binding [1] | IC50 [2] [pM] | IC50 [3] [µM]
1 | CC[C@H](C)[C@@H]1NC(=O)[C@H](CCCNC(=N)N)NC(=O)[C@H](CC(=O)O)NC(=O)[C@H]([C@@H](C)CC)NC(=O)[C@H](CO)NC(=O)CNC(=O)[C@H]([C@@H](C)O)NC(=O)[C@H](Cc2ccccc2)NC(=O)[C@@H](NC(=O)[C@H](CO)NC(=O)[C@H](CO)NC(=O)[C@H](CCCNC(=N)N)NC(=O)[C@H](CCCNC(=N)N)NC(=O)[C@H](CC(C)C)NC(=O)[C@@H](N)CO)CSSC[C@@H](C(=O)N[C@@H](CC(N)=O)C(=O)N[C@@H](CO)C(=O)N[C@@H](Cc2ccccc2)C(=O)N[C@@H](CCCNC(=N)N)C(=O)N[C@@H](Cc2ccc(O)cc2)C(=O)O)NC(=O)CNC(=O)[C@H](CC(C)C)NC(=O)CNC(=O)[C@H](CO)NC(=O)[C@H](CCC(N)=O)NC(=O)[C@H](C)NC(=O)[C@H](CCCNC(=N)N)NC1=O [ANF 27] | a smaller portion of the total binding is displaced | – | –
2 | CC[C@H](C)[C@@H]1NC(=O)[C@H](CCCNC(=N)N)NC(=O)[C@H](CC(=O)O)NC(=O)[C@H]([C@@H](C)CC)NC(=O)[C@H](CO)NC(=O)CNC(=O)[C@H]([C@@H](C)O)NC(=O)[C@H](Cc2ccccc2)NC(=O)[C@@H](NC(=O)[C@H](CO)NC(=O)[C@H](CO)NC(=O)[C@H](CCCNC(=N)N)NC(=O)[C@H](CCCNC(=N)N)NC(=O)[C@H](CC(C)C)NC(=O)[C@H](CO)NC(=O)[C@H](CCCNC(=N)N)NC(=O)[C@@H]2CCCN2C(=O)[C@H](C)NC(=O)[C@@H](N)[C@@H](C)O)CSSC[C@@H](C(=O)N[C@@H](CC(N)=O)C(=O)N[C@@H](CO)C(=O)N[C@@H](Cc2ccccc2)C(=O)N[C@@H](CCCNC(=N)N)C(=O)N[C@@H](Cc2ccc(O)cc2)C(=O)O)NC(=O)CNC(=O)[C@H](CC(C)C)NC(=O)CNC(=O)[C@H](CO)NC(=O)[C@H](CCC(N)=O)NC(=O)[C@H](C)NC(=O)[C@H](CCCNC(=N)N)NC1=O [ANF 76] (H-TAPRSLRRSSCFTGSIDRIRAQSGLGCNSFRY-OH; disulfide 11-27; C-terminus assumed) | – | 8.9 | 10
